Test results from patent US20190352341A1, “MODIFIED PEPTIDES AND THEIR USE FOR TREATING SYSTEMIC LUPUS ERYTHEMATOSUS” (IMMUPHARMA FRANCE SA, priority 2018, published 2019).
Square brackets hold non-standard residues; d marks the D form. Peptide text beside a SMILES is read from it. Met(O) = CS(=O)CC[C@H](N)C(=O)O; pS = N[C@@H](COP(=O)(O)O)C(=O)O

How the values were obtained:
MRL/lpr mice [1] = assay: Cellularity analysis (peripheral blood) in MRL/lpr mice; type: in vivo, mouse; details: 100 μg/100 μL, 5 days after unique injection
Procedure: MRL/lpr mice were injected with 100 μg/100 μL of P140 or P140(MO) and cellularity (peripheral blood) was studied 5 days after this unique injection. The count includes all the leucocytes. In view of the low number of tested mice, a non parametric statistical test has been realised Mann-Whitney).

HSC70 protein = biological target: T1, HSC70 protein (Bos taurus, UniProt P19120); assay: Affinity of the peptides for HSC70 protein (BIAcore); type: binding, bovine
T1 construct: purchased Stressgen
Procedure: BIAcore 3000 system (Biacore AB) was used to evaluate the binding of P140 peptides to HSC70 protein (Page et al., 2009, and 2011). Sensor chip CMS, surfactant P20, amine coupling kit containing N-hydroxysuccinimide (NHS) and N-ethyl-N′-dimethylaminopropyl carbodiimide (EDC), 2-(2-pyridinyldithio)ethaneamine (PDEA) and ethanolamine were from Biacore AB. Biosensor assays were performed with HBS-EP buffer as running buffer (10 mM HEPES, 150 mM NaCl, 3 mM EDTA, 0.005% surfactant P20, pH 7.4). The compounds were diluted in the running buffer. The sensor chip surface was regenerated after each experiment by injecting 10 μL of 10 mM HCl. Recombinant bovine HSC70 (Stressgen) was immobilized on flow cells of a CM5 sensor chip through its thiol groups using 35 μL PDEA in 50 mM borate buffer, pH 8.3 on the NHS/EDC-activated matrix. Then, 35 μL of HSC70 (100 μg/mL in formate buffer, pH 4.3) were injected until a response of 13,000 response units (RU) corresponding to 13 ng/mm^2 of HSC70 was immobilized. Twenty μL of a 50 mM cysteine/1 M NaCl solution was used to saturate unoccupied sites on the chip. The direct binding measurement of P140 peptides to HSC70 was carried out at 25° C. with a constant flow rate of 20 μL/min. P140 peptide and analogues were injected in the flux at different concentrations for 3 min, followed by a dissociation phase of 3 min. The kinetic parameters were calculated using the BIAeval 3.1 software on a personal computer. Analysis was performed using the simple 1:1 Langmuir binding model. The specific binding profiles were obtained after subtracting the response signal from the control empty channel and from blank-buffer injection. The fitting to each model was judged by the χ^2 value and randomness of residue distribution compared to the theoretical model.

MRL/lpr mice [2] = assay: Survival analysis in MRL/lpr mice; type: in vivo, mouse; details: female MRL/lpr mice, peptide intravenously from five weeks of age; NaCl control 25 weeks
Procedure: It has been determined that this mouse strain carries a mutation in the fas gene. Also, the MRL/lpr is a useful model to study behavioural and cognitive deficits found in autoimmune diseases and the efficacy of immunosuppressive agents [Monneaux et al., 2003, Eur. J. Immunol. 33, 287-296].
Five-week-old female MRL/lpr mice received P140 or peptide P140(MO) intravenously as described (Monneaux et al., 2003, Eur. J. Immunol. 33, 287-296). All experimental protocols were carried out with the approval of the local Institutional Animal Care and Use Committee (CREMEAS). As control, mice were injected with NaCl.
Twenty mice were used for each peptide or NaCl.
(§1) Statistical tests were performed using GraphPad Prism version 5.0. The two-way ANOVA test was used to analyze statistical significance of proteinuria differences between control and peptide-treated groups of mice. Survival of control and P140 analogue-treated female MRL/lpr mice was analyzed by the Kaplan-Meier method, and the significance of differences was determined by the log-rank test. For the other variables, statistical significance was assessed using the Student's t-test. p values less than 0.05 were considered significant.

MRL/lpr mice [3] = assay: Proteinuria analysis in MRL/lpr mice; type: in vivo, mouse; details: Albustix score, compared to the untreated mice
Procedure: Proteinuria of the above mice was measured in fresh urine using Albustix (Bayer Diagnostics) and was semi-quantitatively estimated according to a […] recommended by the manufacturer (no proteinuria=0; traces=1; 1+=2; 2+=3; 3+=4; 4+=5).
as §1

[4] = Stability of the peptides at 37° C. (HPLC peak area); type: physicochemical; details: for 95% of stability (predicted): time to 95% from linear equation; for Stability (%) Linear equation: slope: y = stability %, x = days; for Stability (%): 10% mannitol
Procedure: The stability of the peptide SEQ ID NO: 1 in which the serine at position 10 is phosphorylated and the methionine at position 4 is oxydized (P140(MO)), and the peptide SEQ ID NO: 1 in which the serine at position 10 is phosphorylated (P140) was measured at 37° C., in a solution of 10% (v/v) mannitol. For each peptide, 3 concentrations have been tested: 200, 100 and 50 μg/mL.
At the indicated time, the integrity of P140 and P140(MO) peptides was measured in saline by high-performance liquid chromatography from the area of the peak corresponding to the intact peptide.
Stability is measured by using the HPLC peak surface.

[5] = BIAcore, 25° C., 1:1 Langmuir model, global fit

T1 sequence (P19120 whole entry): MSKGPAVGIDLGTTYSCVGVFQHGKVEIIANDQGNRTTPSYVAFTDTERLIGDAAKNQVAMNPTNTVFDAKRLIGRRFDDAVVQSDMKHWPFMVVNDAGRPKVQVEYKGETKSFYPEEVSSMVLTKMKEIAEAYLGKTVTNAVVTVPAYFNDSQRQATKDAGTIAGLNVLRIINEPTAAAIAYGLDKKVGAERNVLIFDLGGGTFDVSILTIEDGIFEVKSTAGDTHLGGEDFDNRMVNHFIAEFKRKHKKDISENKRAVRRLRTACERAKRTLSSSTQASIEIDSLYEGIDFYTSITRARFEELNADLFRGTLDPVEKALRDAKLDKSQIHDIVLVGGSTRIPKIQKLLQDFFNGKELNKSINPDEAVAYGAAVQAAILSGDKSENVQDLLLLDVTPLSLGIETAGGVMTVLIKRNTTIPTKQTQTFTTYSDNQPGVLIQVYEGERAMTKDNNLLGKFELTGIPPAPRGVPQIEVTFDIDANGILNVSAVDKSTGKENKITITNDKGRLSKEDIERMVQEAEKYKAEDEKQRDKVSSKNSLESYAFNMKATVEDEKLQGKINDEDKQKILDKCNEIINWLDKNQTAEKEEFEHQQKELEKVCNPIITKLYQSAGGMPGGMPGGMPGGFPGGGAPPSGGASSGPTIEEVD

CC[C@H](C)[C@H](NC(=O)[C@H](Cc1ccccc1)NC(=O)[C@H](C)NC(=O)[C@H](Cc1ccc(O)cc1)NC(=O)CNC(=O)[C@H](CCCNC(=N)N)NC(=O)[C@@H]1CCCN1C(=O)[C@H](CCCCN)NC(=O)CNC(=O)[C@H](COP(=O)(O)O)NC(=O)[C@H](CCCNC(=N)N)NC(=O)[C@H](CCCCN)NC(=O)[C@H](CO)NC(=O)[C@H](Cc1ccc(O)cc1)NC(=O)[C@@H](NC(=O)[C@H](CC[S+](C)[O-])NC(=O)[C@H](Cc1c[nH]cn1)NC(=O)[C@@H](NC(=O)[C@@H](N)CCCNC(=N)N)[C@@H](C)CC)C(C)C)C(=O)N[C@@H](CCC(=O)O)C(=O)N[C@@H](Cc1ccc(O)cc1)C(=O)O (stereo partly shown) [P140(MO), RIHM(O)VYSKRS(PO3H2)GKPRGYAFIEY] (H-RIH[Met(O)]VYSKR[pS]GKPRGYAFIEY-OH)
Peripheral hypercellularity (leucocytes in peripheral blood) (MRL/lpr mice [1]): decrease peripheral hypercellularity | Rmax (HSC70 protein; BIAcore, 25° C., 1:1 Langmuir model): 39 RU | KA (HSC70 protein; [5]): 524000 M⁻¹ | kd (HSC70 protein; [5]): 0.0022 s⁻¹ | RI (HSC70 protein; peptide 1.56 μM): 14 RU | Req (HSC70 protein; peptide 1.56 μM): 17.6 RU | kobs (HSC70 protein; peptide 1.56 μM): 0.004 s⁻¹ | RI (HSC70 protein; peptide 3.12 μM): 18.7 RU | Req (HSC70 protein; peptide 3.12 μM): 242 RU | kobs (HSC70 protein; peptide 3.12 μM): 0.0058 s⁻¹ | RI (HSC70 protein; peptide 6.25 μM): 25.9 RU | Req (HSC70 protein; peptide 6.25 μM): 29.9 RU | kobs (HSC70 protein; peptide 6.25 μM): 0.0094 s⁻¹ | RI (HSC70 protein; peptide 12.5 μM): 36.9 RU | Req (HSC70 protein; peptide 12.5 μM): 33.9 RU | kobs (HSC70 protein; peptide 12.5 μM): 0.0166 s⁻¹ | RI (HSC70 protein; peptide 25 μM): 53.4 RU | Req (HSC70 protein; peptide 25 μM): 36.3 RU | kobs (HSC70 protein; peptide 25 μM): 0.031 s⁻¹ | Median survival of mice (MRL/lpr mice [2]): > 40 weeks | Proteinuria (MRL/lpr mice [3]): less important and appears lately | Stability (%) Linear equation: intercept ([4]; 50 μg/mL): 99.677 | 95% of stability (predicted) ([4]; 50 μg/mL): 2 years | Stability (%) Linear equation: slope ([4]; 50 μg/mL): y = −0.0064x + | Stability (%) Linear equation: intercept ([4]; 100 μg/mL): 100.11 | 95% of stability (predicted) ([4]; 100 μg/mL): 2 years + | Stability (%) Linear equation: slope ([4]; 100 μg/mL): y = −0.0064x + | 95% of stability (predicted) ([4]; 200 μg/mL): ∞ | Stability (%) ([4]; 50 μg/mL, day 0): 100% | Stability (%) ([4]; 50 μg/mL, day 20): 100% | Stability (%) ([4]; 50 μg/mL, day 40): 100% | Stability (%) ([4]; 50 μg/mL, day 100): 99.4% | Stability (%) ([4]; 100 μg/mL, day 0): 100% | Stability (%) ([4]; 100 μg/mL, day 20): 99.1% | Stability (%) ([4]; 100 μg/mL, day 40): 99.5% | Stability (%) ([4]; 100 μg/mL, day 100): 99.1% | Stability (%) ([4]; 200 μg/mL, day 0): 100% | Stability (%) ([4]; 200 μg/mL, day 20): 100% | Stability (%) ([4]; 200 μg/mL, day 40): 100% | Stability (%) ([4]; 200 μg/mL, day 100): 100%
